How the values were obtained:
bedstraw = assay: Test B pre/postemergence bedstraw; format: in vivo, Galium aparine
In short: (§1)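 Response is a visual 0-to-10 score relative to untreated plants, where 0 means no effect and 10 means complete control, taken twelve to sixteen days after application. Treatments went onto soil at planting and onto foliage of 1- to 4-leaf plants, using a surfactant-containing non-phytotoxic solvent.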

blackgrass = assay: Test B pre/postemergence blackgrass; format: in vivo, Alopecurus myosuroides
In short: as §1

surinam grass = assay: Test B pre/postemergence surinam grass; format: in vivo, Brachiaria decumbens
In short: as §1

cocklebur = assay: Test B pre/postemergence cocklebur; format: in vivo, Xanthium strumarium
In short: as §1

corn = assay: Test B pre/postemergence corn; format: in vivo, Zea mays
In short: as §1

crabgrass = assay: Test B pre/postemergence crabgrass; format: in vivo, Digitaria sanguinalis
In short: as §1

giant foxtail = assay: Test B pre/postemergence giant foxtail; format: in vivo, Setaria faberii
In short: as §1

morningglory = assay: Test B pre/postemergence morningglory; format: in vivo, Ipomoea hederacea
In short: as §1

pigweed = assay: Test B pre/postemergence pigweed; format: in vivo, Amaranthus retroflexus
In short: as §1

rape = assay: Test B pre/postemergence rape; format: in vivo, Brassica napus
In short: as §1

soybean = assay: Test B pre/postemergence soybean; format: in vivo, Glycine max
In short: as §1

sugar beet = assay: Test B pre/postemergence sugar beet; format: in vivo, Beta vulgaris
In short: as §1

velvetleaf = assay: Test B pre/postemergence velvetleaf; format: in vivo, Abutilon theophrasti
In short: as §1

wheat = assay: Test B pre/postemergence wheat; format: in vivo, Triticum aestivum
In short: as §1

wild oat = assay: Test B pre/postemergence wild oat; format: in vivo, Avena fatua
In short: as §1

purple nutsedge = assay: Test B pre/postemergence purple nutsedge; format: in vivo, Cyperus rotundus
In short: as §1

[1] = Postemergence, Rate 62 g/ha, scale 0 to 10, 0 is no effect, 10 is complete control
[2] = Postemergence, Rate 125 g/ha, scale of 0 to 10 where 0 is no effect and 10 is complete control
[3] = Preemergence, Rate 125 g/ha, scale of 0 to 10 where 0 is no effect and 10 is complete control
[4] = Preemergence, Rate 250 g/ha, scale 0 (no effect) to 10 (complete control)
[5] = Rate 62 g/ha, Preemergence, scale 0 to 10
[6] = Rate 250 g/ha, Postemergence, scale 0 to 10, 0 is no effect, 10 is complete control
[7] = Rate 500 g/ha, Preemergence, scale 0 to 10 (0 no effect, 10 complete control)
[8] = Rate 500 g/ha, Postemergence, scale 0 to 10, 0 is no effect, 10 is complete control

Cc1nc(C(C)n2c(=O)on(C(=O)N(c3ccccc3)C(C)C)c2=O)sc1C (stereo not shown) [Compound 756]
Plant response rating, Bedstraw (bedstraw; [1]): 0
Bedstraw plant response rating (bedstraw; [2]): 0
Plant response rating, Bedstraw (bedstraw; [3]): 0
Bedstraw plant response rating (bedstraw; [4]): 0
Bedstraw plant response rating (bedstraw; [5]): 0
Bedstraw plant response rating (bedstraw; [6]): 3
Bedstraw plant response rating (bedstraw; [7]): 0
Plant response rating, Blackgrass (blackgrass; [1]): 0
Blackgrass plant response rating (blackgrass; [2]): 0
Plant response rating, Blackgrass (blackgrass; [3]): 2
Blackgrass plant response rating (blackgrass; [4]): 4
Blackgrass plant response rating (blackgrass; [5]): 0
Blackgrass plant response rating (blackgrass; [6]): 0
Blackgrass plant response rating (blackgrass; [8]): 3
Blackgrass plant response rating (blackgrass; [7]): 7
Plant response rating, B. signalgrass (surinam grass; [1]): 0
B. signalgrass plant response rating (surinam grass; [2]): 0
B. signalgrass plant response rating (surinam grass; Preemergence, Rate 62 g/ha, scale of 0 to 10 where 0 is no effect and 10 is complete control): 0
Plant response rating, B. signalgrass (surinam grass; [3]): 0
B. signalgrass plant response rating (surinam grass; [4]): 0
B. signalgrass plant response rating (surinam grass; [6]): 0
B. signalgrass plant response rating (surinam grass; [8]): 2
B. signalgrass plant response rating (surinam grass; [7]): 3
Plant response rating, Cocklebur (cocklebur; [1]): 0
Cocklebur plant response rating (cocklebur; [2]): 0
Plant response rating, Cocklebur (cocklebur; [3]): 0
Cocklebur plant response rating (cocklebur; [4]): 0
Cocklebur plant response rating (cocklebur; [5]): 0
Cocklebur plant response rating (cocklebur; [6]): 0
Cocklebur plant response rating (cocklebur; [8]): 0
Cocklebur plant response rating (cocklebur; [7]): 0
Plant response rating, Corn (corn; [1]): 0
Corn plant response rating (corn; [2]): 0
Plant response rating, Corn (corn; [3]): 0
Corn plant response rating (corn; [4]): 0
Corn plant response rating (corn; [5]): 0
Corn plant response rating (corn; [6]): 0
Corn plant response rating (corn; [8]): 0
Corn plant response rating (corn; [7]): 0
Plant response rating, Crabgrass (crabgrass; [1]): 0
Crabgrass plant response rating (crabgrass; [2]): 0
Plant response rating, Crabgrass (crabgrass; [3]): 9
Crabgrass plant response rating (crabgrass; [4]): 9
Crabgrass plant response rating (crabgrass; [5]): 4
Crabgrass plant response rating (crabgrass; [6]): 0
Crabgrass plant response rating (crabgrass; [8]): 3
Crabgrass plant response rating (crabgrass; [7]): 9
Plant response rating, Giant foxtail (giant foxtail; [1]): 0
Giant foxtail plant response rating (giant foxtail; [2]): 0
Plant response rating, Giant foxtail (giant foxtail; [3]): 9
Giant foxtail plant response rating (giant foxtail; [4]): 9
Giant foxtail plant response rating (giant foxtail; [5]): 7
Giant foxtail plant response rating (giant foxtail; [6]): 0
Giant foxtail plant response rating (giant foxtail; [8]): 0
Giant foxtail plant response rating (giant foxtail; [7]): 9
Plant response rating, Morningglory (morningglory; [1]): 4
Morningglory plant response rating (morningglory; [2]): 7
Plant response rating, Morningglory (morningglory; [3]): 0
Morningglory plant response rating (morningglory; [4]): 0
Morningglory plant response rating (morningglory; [5]): 0
Morningglory plant response rating (morningglory; [6]): 10
Morningglory plant response rating (morningglory; [8]): 10
Morningglory plant response rating (morningglory; [7]): 0
Plant response rating, Redroot pigweed (pigweed; [1]): 0
Redroot pigweed plant response rating (pigweed; [2]): 0
Plant response rating, Redroot pigweed (pigweed; [3]): 0
Redroot pigweed plant response rating (pigweed; [4]): 0
Redroot pigweed plant response rating (pigweed; [5]): 0
Redroot pigweed plant response rating (pigweed; [6]): 0
Redroot pigweed plant response rating (pigweed; [8]): 3
Redroot pigweed plant response rating (pigweed; [7]): 0
Plant response rating, Rape (rape; [1]): 0
Rape plant response rating (rape; [2]): 0
Plant response rating, Rape (rape; [3]): 0
Rape plant response rating (rape; [4]): 0
Rape plant response rating (rape; [5]): 0
Rape plant response rating (rape; [6]): 0
Rape plant response rating (rape; [8]): 3
Rape plant response rating (rape; [7]): 0
Plant response rating, Soybean (soybean; [1]): 2
Plant response rating, Soybean (soybean; [3]): 0
Soybean plant response rating (soybean; [4]): 0
Soybean plant response rating (soybean; [5]): 0
Soybean plant response rating (soybean; [6]): 2
Soybean plant response rating (soybean; [8]): 2
Soybean plant response rating (soybean; [7]): 0
Plant response rating, Sugarbeets (sugar beet; [1]): 0
Plant response rating, Sugarbeets (sugar beet; [3]): 0
Sugarbeets plant response rating (sugar beet; [4]): 0
Sugarbeets plant response rating (sugar beet; [5]): 0
Sugarbeets plant response rating (sugar beet; [6]): 0
Sugarbeets plant response rating (sugar beet; [8]): 0
Sugarbeets plant response rating (sugar beet; [7]): 0
Plant response rating, Velvetleaf (velvetleaf; [1]): 0
Plant response rating, Velvetleaf (velvetleaf; [3]): 0
Velvetleaf plant response rating (velvetleaf; [4]): 0
Velvetleaf plant response rating (velvetleaf; [5]): 0
Velvetleaf plant response rating (velvetleaf; [6]): 0
Velvetleaf plant response rating (velvetleaf; [8]): 0
Velvetleaf plant response rating (velvetleaf; [7]): 0
Plant response rating, Wheat (wheat; [1]): 0
Plant response rating, Wheat (wheat; [3]): 0
Wheat plant response rating (wheat; [4]): 0
Wheat plant response rating (wheat; [5]): 0
Wheat plant response rating (wheat; [6]): 0
Wheat plant response rating (wheat; [8]): 0
Wheat plant response rating (wheat; [7]): 0
Plant response rating, Wild oats (wild oat; [1]): 0
Plant response rating, Wild oats (wild oat; [3]): 0
Wild oats plant response rating (wild oat; [4]): 0
Wild oats plant response rating (wild oat; [5]): 0
Wild oats plant response rating (wild oat; [6]): 0
Wild oats plant response rating (wild oat; [8]): 0
Wild oats plant response rating (wild oat; [7]): 0
Plant response rating, Nutsedge (purple nutsedge; [1]): 0
Nutsedge plant response rating (purple nutsedge; [2]): 0
Plant response rating, Nutsedge (purple nutsedge; [3]): 0
Nutsedge plant response rating (purple nutsedge; [4]): 0
Nutsedge plant response rating (purple nutsedge; [6]): 0
Nutsedge plant response rating (purple nutsedge; [8]): 0
Nutsedge plant response rating (purple nutsedge; [7]): 7

— patent publication US6737383B1, “Herbicidal oxadiazolidines” (priority 1999, dated 2004)
